Assay results reported in US9533952B2, “N-prop-2-ynyl carboxamide derivatives and their use as TRPA1 antagonists” (Orion Corporation, priority 2012, dated 2017).

target: TRPA1 (Homo sapiens, UniProt O75762); assay: Determination of TRPA1 activity in vitro (TRPA1 antagonism in vitro); assay type: cell-based; conditions: procedure of Wei et al., Anesthesiology 111 (2009) 147-154
Sequence (O75762 whole entry): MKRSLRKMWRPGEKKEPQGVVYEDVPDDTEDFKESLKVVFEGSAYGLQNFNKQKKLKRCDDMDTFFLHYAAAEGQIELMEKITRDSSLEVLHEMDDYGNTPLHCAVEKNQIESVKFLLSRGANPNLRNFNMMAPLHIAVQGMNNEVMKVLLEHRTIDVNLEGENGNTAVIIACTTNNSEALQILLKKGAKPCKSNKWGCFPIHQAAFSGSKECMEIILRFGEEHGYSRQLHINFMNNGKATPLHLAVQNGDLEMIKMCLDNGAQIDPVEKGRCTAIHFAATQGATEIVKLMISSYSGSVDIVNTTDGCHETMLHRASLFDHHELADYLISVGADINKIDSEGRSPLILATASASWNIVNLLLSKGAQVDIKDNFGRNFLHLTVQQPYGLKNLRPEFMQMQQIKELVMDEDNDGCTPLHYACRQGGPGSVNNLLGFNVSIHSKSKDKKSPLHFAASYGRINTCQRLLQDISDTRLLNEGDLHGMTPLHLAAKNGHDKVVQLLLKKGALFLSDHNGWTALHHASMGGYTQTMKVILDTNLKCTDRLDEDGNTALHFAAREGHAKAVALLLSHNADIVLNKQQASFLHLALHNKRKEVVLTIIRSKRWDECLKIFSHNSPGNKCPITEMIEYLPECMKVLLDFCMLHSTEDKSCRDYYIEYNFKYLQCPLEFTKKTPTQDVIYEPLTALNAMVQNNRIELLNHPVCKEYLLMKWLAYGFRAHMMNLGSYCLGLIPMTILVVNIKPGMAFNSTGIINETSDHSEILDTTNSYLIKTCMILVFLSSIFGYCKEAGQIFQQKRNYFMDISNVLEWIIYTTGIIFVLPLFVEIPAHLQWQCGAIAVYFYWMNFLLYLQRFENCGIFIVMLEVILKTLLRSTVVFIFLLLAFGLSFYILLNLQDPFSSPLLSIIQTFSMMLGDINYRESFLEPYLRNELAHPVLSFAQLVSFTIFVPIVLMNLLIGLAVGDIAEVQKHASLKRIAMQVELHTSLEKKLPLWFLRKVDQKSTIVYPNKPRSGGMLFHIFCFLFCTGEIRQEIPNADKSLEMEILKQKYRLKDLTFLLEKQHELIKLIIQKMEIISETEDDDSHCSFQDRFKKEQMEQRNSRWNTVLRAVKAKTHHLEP

SMILES | IC50
C#CC(C)(C)NC(=O)c1cccnc1Nc1ccc(F)c(C#N)c1 [Example 181, 2-(3-Cyano-4-fluorophenylamino)-N-(2-methylbut-3-yn-2-yl)nicotinamide] | 2.7 µM
C#CC(C)(C)NC(=O)c1cccnc1Nc1cc(F)cc(C#N)c1 [Example 183, 2-(3-Cyano-5-fluorophenylamino)-N-(2-methylbut-3-yn-2-yl)nicotinamide] | 1.4 µM
C#CC(C)(CC)NC(=O)c1cccnc1Nc1ccccc1F (stereo not drawn) [Example 185, 2-(2-Fluorophenylamino)-N-(3-methylpent-1-yn-3-yl)nicotinamide] | 0.5 µM
C#CC(C)(CC)NC(=O)c1cccnc1Nc1cc(F)cc(F)c1 (stereo not drawn) [Example 186, 2-(3,5-Difluorophenylamino)-N-(3-methylpent-1-yn-3-yl)nicotinamide] | 0.2 µM
C#CC(C)(CC)NC(=O)c1cccnc1Nc1cc(F)cc(C#N)c1 (stereo not drawn) [Example 187, 2-(3-Cyano-5-fluorophenylamino)-N-(3-methylpent-1-yn-3-yl)nicotinamide] | 0.4 µM
C#CC(C)(C)NC(=O)c1cccnc1Nc1cc(OC)ccc1Cl [Example 188, 2-(2-Chloro-5-methoxyphenylamino)-N-(2-methylbut-3-yn-2-yl)nicotinamide] | 16.7 µM
C#CC(C)(CC)NC(=O)c1cccnc1NC1CCC(F)(F)CC1 (stereo not drawn) [Example 191, 2-(4,4-Difluorocyclohexylamino)-N-(3-methylpent-1-yn-3-yl)nicotinamide] | 0.6 µM

Next, values leading:

IC50 | SMILES
0.5 µM | C#CC(C)(CC)NC(=O)c1cccnc1Nc1ccc(F)c(C#N)c1 (stereo not drawn) [Example 182, 2-(3-Cyano-4-fluorophenylamino)-N-(3-methylpent-1-yn-3-yl)nicotinamide]
0.2 µM | C#CC(C)(CC)NC(=O)c1cccnc1Nc1cccc(F)c1 (stereo not drawn) [Example 184, 2-(3-Fluorophenylamino)-N-(3-methylpent-1-yn-3-yl)nicotinamide]
3 µM | C#CC(C)(CC)NC(=O)c1cccnc1Nc1cc(OC)ccc1Cl (stereo not drawn) [Example 189, 2-(2-Chloro-5-methoxyphenylamino)-N-(3-methylpent-1-yn-3-yl)nicotinamide]
0.4 µM | C#CC(C)(CC)NC(=O)c1cccnc1Nc1ccccc1 (stereo not drawn) [Example 190, N-(3-Methylpent-1-yn-3-yl)-2-(phenylamino)nicotinamide]
0.7 µM | C#CC(C)(CC)NC(=O)c1cccnc1Nc1ccc(OC)c(Cl)c1 (stereo not drawn) [Example 192, 2-(3-Chloro-4-methoxyphenylamino)-N-(3-methylpent-1-yn-3-yl)nicotinamide]
11.1 µM | C#CC(C)(C)NC(=O)c1cccnc1Nc1ccc(F)c(OC)c1 [Example 193, 2-(4-Fluoro-3-methoxyphenylamino)-N-(2-methylbut-3-yn-2-yl)nicotinamide]
1.6 µM | C#CC(C)(CC)NC(=O)c1cccnc1Nc1ccc(F)c(OC)c1 (stereo not drawn) [Example 194, 2-(4-Fluoro-3-methoxyphenylamino)-N-(3-methylpent-1-yn-3-yl)nicotinamide]
0.1 µM | C#CC(C)(CC)NC(=O)c1cccnc1Nc1ccc(F)c(F)c1 (stereo not drawn) [Example 195, 2-(3,4-Difluorophenylamino)-N-(3-methylpent-1-yn-3-yl)nicotinamide]
3.2 µM | C#CC(C)(C)NC(=O)c1cccnc1Nc1ccc(Cl)c(OC)c1 [Example 196, 2-(4-Chloro-3-methoxyphenylamino)-N-(2-methylbut-3-yn-2-yl)nicotinamide]
0.7 µM | C#CC(C)(CC)NC(=O)c1cccnc1Nc1ccc(Cl)c(OC)c1 (stereo not drawn) [Example 197, 2-(4-Chloro-3-methoxyphenylamino)-N-(3-methylpent-1-yn-3-yl)nicotinamide]
0.2 µM | C#CC(C)(CC)NC(=O)c1cccnc1Nc1ccc(F)cc1 (stereo not drawn) [Example 198, 2-(4-Fluorophenylamino)-N-(3-methylpent-1-yn-3-yl)nicotinamide]
